Earlier results on five compounds are cited in US20150150789A1, “ANTIMICROBIAL COMPOSITIONS AND METHODS FOR PREVENTING INFECTION IN SURGICAL INCISION SITES” (TYRX, Inc., priority 2013, published 2015).

For this series the following is noted: for solubility in organic solvents: alcohols, ketones, ethers, aldehydes, acetonitrile, acetic acid, methylene chloride, chloroform (novobiocin sodium: alcohol).

`CO[C@H]1/C=C/O[C@@]2(C)Oc3c(C)c(O)c4c(O)c(c(/C=N/N5CCN(C)CC5)c(O)c4c3C2=O)NC(=O)/C(C)=C\C=C\[C@H](C)[C@H](O)[C@@H](C)[C@@H](O)[C@@H](C)[C@H](OC(C)=O)[C@@H]1C` [Rifampin, rifampin]: the “solubility in organic solvents” value is on record as “freely soluble” and the solubility in water result is “very slightly soluble”. Besides, the “solubility in acidic aqueous solutions” value (acidic aqueous solutions) is listed as “freely soluble”.
In the case of `CC[C@H]1OC(=O)[C@H](C)[C@@H](O[C@H]2C[C@@](C)(OC)[C@@H](O)[C@H](C)O2)[C@H](C)[C@@H](O[C@@H]2O[C@H](C)C[C@H](N(C)C)[C@H]2O)[C@](C)(O)C[C@@H](C)C(=O)[C@H](C)[C@@H](O)[C@]1(C)O` [Erythromycin], the “solubility in organic solvents” value is reported as “soluble” and the solubility in water result was “slightly soluble”.
In the case of `Oc1c(Cl)cc(Cl)c(Cl)c1Cc1c(O)c(Cl)cc(Cl)c1Cl` [Hexachlorophene], the “solubility in organic solvents” value is reported as “soluble” and the solubility in water result is “soluble”.
`CCOc1ccc2ccccc2c1C(=O)N[C@@H]1C(=O)N2[C@@H]1SC(C)(C)[C@@H]2C(=O)O` [Nafcillin]: the “solubility in organic solvents” value is reported as “readily soluble” and the solubility in water result was “readily soluble”.
For the compound `CO[C@@H]1[C@@H](OC(N)=O)[C@@H](O)[C@H](Oc2ccc3c(O)c(NC(=O)c4ccc(O)c(CC=C(C)C)c4)c(=O)oc3c2C)OC1(C)C` [Novobiocin sodium], the “solubility in organic solvents” value is reported as “freely soluble” and the solubility in water result is listed as “freely soluble”.
